One test has as its target T1, rat hepatic kynureninase (Rattus norvegicus, UniProt P70712).
T1 sequence (P70712 1-464): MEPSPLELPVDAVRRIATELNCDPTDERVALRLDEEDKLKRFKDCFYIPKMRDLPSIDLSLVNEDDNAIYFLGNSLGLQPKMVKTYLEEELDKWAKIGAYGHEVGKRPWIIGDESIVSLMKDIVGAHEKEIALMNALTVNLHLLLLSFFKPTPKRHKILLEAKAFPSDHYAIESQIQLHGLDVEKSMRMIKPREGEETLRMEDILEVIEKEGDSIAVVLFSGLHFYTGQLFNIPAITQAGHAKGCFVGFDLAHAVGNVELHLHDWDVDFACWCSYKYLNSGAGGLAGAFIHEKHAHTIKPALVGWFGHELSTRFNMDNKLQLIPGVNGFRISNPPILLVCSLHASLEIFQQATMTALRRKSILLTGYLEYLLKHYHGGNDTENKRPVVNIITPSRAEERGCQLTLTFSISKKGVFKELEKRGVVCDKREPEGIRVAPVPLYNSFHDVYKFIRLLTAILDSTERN
Particulars: cited from earlier work.

Test [1] concerns the target T2, kynureninase (Pseudomonas fluorescens, UniProt P83788).
T2 sequence (P83788 1-416): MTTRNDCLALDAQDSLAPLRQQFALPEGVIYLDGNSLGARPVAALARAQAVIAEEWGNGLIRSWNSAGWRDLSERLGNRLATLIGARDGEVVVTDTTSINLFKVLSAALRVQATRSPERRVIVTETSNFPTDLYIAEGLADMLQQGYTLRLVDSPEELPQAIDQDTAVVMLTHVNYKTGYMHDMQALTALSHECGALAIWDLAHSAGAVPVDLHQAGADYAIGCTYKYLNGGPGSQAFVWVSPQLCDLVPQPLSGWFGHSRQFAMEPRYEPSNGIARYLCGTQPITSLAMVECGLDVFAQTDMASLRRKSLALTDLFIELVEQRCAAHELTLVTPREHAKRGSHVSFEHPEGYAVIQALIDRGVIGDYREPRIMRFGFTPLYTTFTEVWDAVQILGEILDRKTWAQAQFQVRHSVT
Particulars: as substrate of the Pseudomonas enzyme; cited from earlier work.

In test [2] the target is T2, kynureninase. Description: Inhibition / kinetics of tryptophan-induced bacterial kynureninase. The class given is biochemical.
For test [3], the target named is T3, recombinant human kynureninase (Homo sapiens, UniProt Q16719).
T3 sequence (Q16719 1-465): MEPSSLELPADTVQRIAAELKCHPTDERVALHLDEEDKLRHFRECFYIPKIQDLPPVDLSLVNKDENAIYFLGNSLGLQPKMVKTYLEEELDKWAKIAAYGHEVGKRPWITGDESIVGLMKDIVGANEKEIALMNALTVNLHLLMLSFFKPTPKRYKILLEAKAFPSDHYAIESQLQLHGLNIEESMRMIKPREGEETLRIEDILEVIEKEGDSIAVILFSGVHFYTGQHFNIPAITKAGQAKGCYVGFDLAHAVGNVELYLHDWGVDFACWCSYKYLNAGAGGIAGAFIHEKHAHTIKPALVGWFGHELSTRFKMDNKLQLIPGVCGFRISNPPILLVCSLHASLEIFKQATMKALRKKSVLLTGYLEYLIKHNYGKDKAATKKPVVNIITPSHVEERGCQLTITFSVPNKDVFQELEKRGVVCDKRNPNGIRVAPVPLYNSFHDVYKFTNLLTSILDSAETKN
The conditions noted are these: cited from earlier work.

Test [4] concerns the target T3, recombinant human kynureninase. Description: Inhibition / kinetics of recombinant human kynureninase. The class given is biochemical. The conditions noted are these: as substrate of the human enzyme.

Usually Km stands for the concentration of substrate that gives half-maximal velocity. Usually Ki stands for a measure of affinity in units of concentration, obtained from inhibition or displacement.

Where two headings read alike, the source gives them in different places.

Take `Nc1ccccc1C(=O)C[C@H](N)C(=O)O` [L-kynurenine]: the Km at rat hepatic kynureninase (as substrate of the rat enzyme, reported values, no reference given) is 500 µM; on kynureninase [1], 44.2 µM.

`Nc1ccccc1C(=O)CCC(=O)O` [desaminokynurenine] came in with a Ki on kynureninase [2] (bacterial enzyme, unpublished results of the authors) of 12 ± 3.1 µM. In addition, the type of inhibition entry at kynureninase [2] (bacterial kynureninase, Lineweaver-Burk and Dixon plots) is recorded as “mixed inhibitor”.

On to `Nc1c(O)cc(O)cc1C(=O)CCC(=O)O` [dihydroxydesamino derivative, 3,5-dihydroxydesaminokynurenine], for which the Ki was about 0.25 µM in test [3] (recombinant human enzyme (both mammalian enzymes), earlier report) and about 0.25 µM on rat hepatic kynureninase (rat enzyme (both mammalian enzymes), earlier report).

Take `Nc1ccccc1C(=O)CC(N)C(=O)O` [kynurenine D-enantiomer, kynurenine]: the Ki in test [3] (human enzyme (by context)) is 12 µM.

Regarding `Nc1ccccc1C(=O)CC(N)C(=O)O` (centres unmarked) [kynurenine], the substrate activity result in test [4] is listed as “no appreciable substrate activity”.

Values taken from PMC223355 (BMC Biochemistry, 2003).
